Measurements taken from US9845297B2, “Antimicrobial compounds and methods of making and using the same” (Melinta Therapeutics, Inc., priority 2009, dated 2017).

System: Eschericia coli strain ATCC25922
Experiment: standard microdilution assay to determine minimum inhibitory concentrations (MICs)
Format: cell-based
Conditions: Escherichia coli, ATCC25922, Eschericia coli strain ATCC25922, standard microdilution assay; read-out: E. coli ATCC25922 MIC
Summary of the method: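 Broth microdilution per CLSI protocols, typically 100 µL final volume, against E. coli ATCC25922. MIC values scored as +/− against a cutoff of 16 micrograms/ml.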

Row | Structure (SMILES) | MIC [µg/mL]
1 | CCS(=O)(=O)c1ccc2oc(Nc3nc(=O)c(-c4ccc(CN(CCCN)CCCN)c(F)c4)c[nH]3)nc2c1 [Compound 427] | > 16
2 | NCCCNCc1ccc(-c2c[nH]c(NC(=O)NCCc3cccc(Cl)c3)nc2=O)cc1F [Compound 421] | > 16
3 | NCCCN(CCCC(=O)O)Cc1ccc(-c2c[nH]c(NC(=O)Nc3cc(F)c(F)cc3F)nc2=O)cc1 [Compound 358] | > 16
4 | COc1cc([N+](=O)[O-])ccc1NC(=O)Nc1nc(=O)c(-c2ccc(CNCCCN)c(F)c2)c[nH]1 [Compound 415] | > 16
5 | O=C(Nc1nc(=O)c(-c2ccc(CNCCCCO)cc2)c[nH]1)Nc1ccccc1OC(F)(F)F [Compound 342] | > 16
6 | Cc1[nH]c(NC(=O)Nc2ccccc2OC(F)(F)F)nc(=O)c1CC(=O)N1CCN(CCCN)CC1 [Compound 406] | > 16
7 | NCCCNCc1ccc(-c2c[nH]c(NC(=O)Nc3ccc(OC(F)F)cc3)nc2=O)cc1Cl [Compound 244] | > 16
8 | NCCCN1CCCC(c2c[nH]c(NC(=O)Nc3ccccc3OC(F)(F)F)nc2=O)CC1 (stereo not shown) [Compound 516] | > 16
9 | N[C@H]1CCN(CCc2c[nH]c(NC(=O)Nc3ccccc3OC(F)(F)F)nc2=O)C1 [Compound 381] | > 16
10 | Cc1cc([N+](=O)[O-])ccc1NC(=O)Nc1nc(=O)c(-c2ccc(CNCCCN)c(F)c2)c[nH]1 [Compound 495] | > 16
11 | NCCCNCc1ccc(-c2c[nH]c(NC(=O)NCCc3ccc(Cl)cc3)nc2=O)cc1F [Compound 423] | > 16
12 | NCCCN(CCCN)Cc1ccc(-c2c[nH]c(Nc3nc4ccccc4[nH]3)nc2=O)cc1 [Compound 473] | > 16
13 | NCCCNCc1ccc(-c2c[nH]c(NC(=O)Nc3cc(F)c(F)cc3F)nc2=O)cn1 [Compound 551] | > 16
14 | NCCCNCc1ccc(-c2c[nH]c(NC(=O)Nc3cccc4nsnc34)nc2=O)cc1F [Compound 445] | > 16
15 | Cc1nc(-c2cnccn2)sc1C(=O)Nc1ccn(CCC[C@H](CCCNC(=N)N)NCCCN)c(=O)n1 [Compound 167] | > 16
16 | N=C(N)NCCN(CCCN)Cc1ccc(-c2c[nH]c(NC(N)=O)nc2=O)cc1 [Compound 170] | > 16
17 | NCCCN(CCCNC(N)=O)Cc1ccc(-c2c[nH]c(NC(=O)Nc3cc(F)c(F)cc3F)nc2=O)cc1 [Compound 444] | > 16
18 | O=C(Nc1nc(=O)c(-c2ccc(CNCCc3ccncc3)cc2)c[nH]1)Nc1ccccc1OC(F)(F)F [Compound 323] | > 16
19 | Cn1c(Nc2nc(=O)c(-c3ccc(CN(CCCN)CCCN)c(F)c3)c[nH]2)nc2ccccc21 [Compound 428] | > 16
20 | NCCCNCc1c(F)cc(-c2c[nH]c(NC(=O)Nc3cccc(Cl)c3Cl)nc2=O)cc1F [Compound 286] | > 16
21 | NCCCN[C@@H]1CCN(CCc2c[nH]c(NC(=O)Nc3cccc(Cl)c3Cl)nc2=O)C1 [Compound 385] | > 16
22 | CN(CCCN(CCCN)Cc1ccc(-c2c[nH]c(NC(=O)Nc3cc(F)c(F)cc3F)nc2=O)cc1)C(=N)N [Compound 366] | > 16
23 | NCCC[C@H](N)CCCn1ccc(NC(N)=O)nc1=O [Compound 122] | > 16
24 | N=C(N)NCCCC(CCCn1ccc(NC(=O)c2ccc(N3CCOCC3)nc2)nc1=O)NCCCN (stereo not shown) [Compound 187] | > 16
25 | CCN[C@@H]1CCCCC1NC(=O)Nc1nc(=O)c(-c2ccc(CN)cc2)c[nH]1 (stereo partly shown) [Compound 1302] | > 16
26 | O=C(Nc1nc(=O)c(-c2ccc(CNCCc3ccncc3)cc2)c[nH]1)Nc1cc(F)c(F)cc1F [Compound 322] | > 16
27 | O=C(Nc1nc(=O)c(-c2ccc(CNCc3ncc[nH]3)cc2)c[nH]1)Nc1cc(F)c(F)cc1F [Compound 313] | > 16

Other lines, results leading:

Row | MIC [µg/mL] | Structure (SMILES)
28 | > 16 | NC(N)NCCCN1CCC(c2c[nH]c(NC(=O)Nc3ccccc3OC(F)(F)F)nc2=O)CC1 [Compound 456]
29 | > 16 | N[C@@H]1CCN(C(=O)Cc2c[nH]c(NC(=O)Nc3ccccc3OC(F)(F)F)nc2=O)C1 [Compound 410]
30 | > 16 | NCCCN(Cc1ccc(-c2c[nH]c(NC(=O)Nc3ccccc3OC(F)(F)F)nc2=O)cc1)Cc1nccs1 [Compound 340]
31 | < 16 | NCCCNCc1ccc(-c2c[nH]c(NC(=O)Nc3cc(C(F)(F)F)ccc3Cl)nc2=O)cc1F [Compound 497]
32 | > 16 | CN(C(=O)C[C@H](CCCNC(=N)N)NC(=O)CCc1c[nH]cn1)C1CNC(NC(N)=O)=NC1=O (stereo partly shown) [Compound 111]
33 | > 16 | NCCCNCc1ccc(-c2c[nH]c(NCCc3nc4cc(F)c(F)cc4o3)nc2=O)cc1F [Compound 608]
34 | < 16 | NCCCNCc1ccc(-c2c[nH]c(NC(=O)Nc3ccccc3OC(F)(F)F)nc2=O)cc1C(F)(F)F [Compound 269]
35 | > 16 | NCc1ccc(-c2c[nH]c(NC(=O)NC3CCCN(CCO)C3)nc2=O)cc1 (stereo not shown) [Compound 1317]
36 | > 16 | NCCCCCN1CCC(c2c[nH]c(NC(=O)Nc3cccc(Cl)c3F)nc2=O)CC1 [Compound 549]
37 | > 16 | O=C(Nc1nc(=O)c(-c2ccc(CNCc3ncc[nH]3)cc2)c[nH]1)Nc1ccccc1OC(F)(F)F [Compound 314]
38 | > 16 | NCCCNCc1ccc(-c2c[nH]c(NC(=O)Nc3ccccc3OCCCO)nc2=O)cc1 [Compound 1294]
39 | > 16 | NCCCNCc1ccc(-c2c[nH]c(NC(=O)Nc3cc([N+](=O)[O-])ccc3Cl)nc2=O)cc1F [Compound 457]
40 | > 16 | NCCCCCN1CCC(c2c[nH]c(NC(=O)Nc3cc(F)c(F)cc3F)nc2=O)CC1 [Compound 538]
41 | > 16 | CC(C)=CCNCc1ccc(-c2c[nH]c(NC(=O)Nc3ccccc3OC(F)(F)F)nc2=O)cc1 [Compound 316]
42 | > 16 | O=C(NCc1ccc(F)cc1)Nc1nc(=O)c(-c2ccc(CNCCCF)c(Cl)c2)c[nH]1 [Compound 257]
43 | > 16 | N=C(N)NCCCCN1CCC(c2c[nH]c(Nc3nc4ccccc4[nH]3)nc2=O)CC1 [Compound 510]
44 | > 16 | NCCCNCc1ccc(-c2c[nH]c(NC(=O)Nc3ccc(F)c([N+](=O)[O-])c3)nc2=O)cc1F [Compound 389]
45 | < 16 | NCCCNCc1ccc(-c2c[nH]c(NC(=O)Nc3cc(Cl)ccc3Cl)nc2=O)cc1F [Compound 480]
46 | > 16 | NCCCN(CCCN)Cc1ccc(-c2c[nH]c(NC(N)=O)nc2=O)cc1 [Compound 149]
47 | < 16 | NCCCNCc1ccc(-c2c[nH]c(Nc3nc4ccccc4[nH]3)nc2=O)cc1 [Compound 334]
48 | < 16 | NCCCNCc1ccc(-c2c[nH]c(NC(=O)NCCc3ccc(Cl)cc3Cl)nc2=O)cc1F [Compound 420]
49 | < 16 | NCCCN(CCCCO)Cc1ccc(-c2c[nH]c(NC(=O)Nc3ccccc3OC(F)(F)F)nc2=O)cc1 [Compound 355]
50 | < 16 | NCCCNCc1ccc(-c2c[nH]c(NC(=O)Nc3ccccc3OC(F)(F)F)nc2=O)cc1Cl [Compound 242]
51 | < 16 | NCCCNCc1ccc(-c2c[nH]c(NC(=O)Nc3ccc(C(F)(F)F)cc3Cl)nc2=O)cc1F [Compound 419]
52 | < 16 | NCCCNCc1ccc(-c2c[nH]c(NC(=O)Nc3cccc(Cl)c3Cl)nc2=O)cc1F [Compound 252]
53 | < 16 | NCCCN(CCCN)Cc1c(F)cc(-c2c[nH]c(NC(=O)Nc3cccc(Cl)c3Cl)nc2=O)cc1F [Compound 297]
54 | < 16 | NCCCNCc1ccc(-c2c[nH]c(Nc3nc4cc(F)c(F)cc4[nH]3)nc2=O)c(F)c1 [Compound 458]
55 | < 16 | NCCCNCc1ccc(-c2c[nH]c(NC(=O)NCc3ccc(Cl)cc3Cl)nc2=O)cc1F [Compound 463]
